System: 233499-124-R-J3-PDC complex spheroid viability, % test/control
Experiment: Anticancer human tumor 233499-124-R-J3-PDC patient-derived colon adenocarcinoma cell line growth inhibition
Conditions: for IC50: curve of first compound; for viability, T/C: stronger effect = lower value
Outline: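 Multicellular complex spheroids of tumor cells with human endothelial cells (HUVEC) and mesenchymal stem cells; the LSD1 inhibitor iadademstat was combined with standard-of-care or investigational agents. Top concentration at or near clinical Cmax, half-log dilutions; final DMSO ≤0.25%.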

[1] = second compound 0.1 µM, first compound 0.0316 µM
[2] = second compound 0.1 µM, first compound 0.1 µM
[3] = second compound 0.1 µM, first compound 0.316 µM
[4] = second compound 0.1 µM, first compound 1 µM
[5] = second compound 0.1 µM, first compound 3.16 µM
[6] = second compound 0.1 µM, first compound 10 µM
[7] = second compound 0.316 µM, first compound 0.0316 µM
[8] = second compound 0.316 µM, first compound 0.1 µM
[9] = second compound 0.316 µM, first compound 0.316 µM
[10] = second compound 0.316 µM, first compound 1 µM
[11] = second compound 0.316 µM, first compound 3.16 µM
[12] = second compound 0.316 µM, first compound 10 µM
[13] = second compound 1 µM, first compound 0.0316 µM
[14] = second compound 1 µM, first compound 0.1 µM
[15] = second compound 1 µM, first compound 0.316 µM
[16] = second compound 1 µM, first compound 1 µM
[17] = second compound 1 µM, first compound 3.16 µM
[18] = second compound 1 µM, first compound 10 µM
[19] = second compound 3.16 µM, first compound 0.0316 µM
[20] = second compound 3.16 µM, first compound 0.1 µM
[21] = second compound 3.16 µM, first compound 0.316 µM
[22] = second compound 3.16 µM, first compound 1 µM
[23] = second compound 3.16 µM, first compound 3.16 µM
[24] = second compound 3.16 µM, first compound 10 µM
[25] = second compound 10 µM, first compound 0.0316 µM
[26] = second compound 10 µM, first compound 0.1 µM
[27] = second compound 10 µM, first compound 0.316 µM
[28] = second compound 10 µM, first compound 1 µM
[29] = second compound 10 µM, first compound 3.16 µM
[30] = second compound 10 µM, first compound 10 µM
[31] = second compound 0.1 µM, first compound 0.00316 µM
[32] = second compound 0.1 µM, first compound 0.01 µM
[33] = second compound 0.316 µM, first compound 0.00316 µM
[34] = second compound 0.316 µM, first compound 0.01 µM
[35] = second compound 1 µM, first compound 0.00316 µM
[36] = second compound 1 µM, first compound 0.01 µM
[37] = second compound 3.16 µM, first compound 0.00316 µM
[38] = second compound 3.16 µM, first compound 0.01 µM
[39] = second compound 10 µM, first compound 0.00316 µM
[40] = second compound 10 µM, first compound 0.01 µM
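Also: spheroids exposed to agents for one week before readout.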

Row | SMILES | IC50 (second compound 0.1 µM) [nM] | IC50 (second compound 0.316 µM) [nM] | IC50 (second compound 1 µM) [nM] | IC50 (second compound 3.16 µM) [nM] | IC50 (second compound 10 µM) [nM] | viability, T/C [1] [%] | viability, T/C [2] [%] | viability, T/C [3] [%] | viability, T/C [4] [%] | viability, T/C [7] [%] | viability, T/C [8] [%] | viability, T/C [9] [%] | viability, T/C [10] [%] | viability, T/C [13] [%] | viability, T/C [14] [%] | viability, T/C [15] [%] | viability, T/C [16] [%] | viability, T/C [19] [%] | viability, T/C [20] [%] | viability, T/C [21] [%] | further results
1 | CC(C)c1c(-c2ccccc2)nc2c(C#N)c[nH]n2c1=O + NC1CC1c1ccc(-c2cccc(O)c2)cc1 | > 10000 | > 10000 | > 10000 | > 10000 | > 10000 | 108 | 117 | 110 | 100 | 100 | 110 | 109 | 118 | 86.8 | 93.6 | 95.1 | 92.8 | 87.6 | 93.5 | 97.3 | viability, T/C [5]: 108%; viability, T/C [6]: 104%; viability, T/C [11]: 117%; viability, T/C [12]: 110%; viability, T/C [17]: 105%; viability, T/C [18]: 116%; viability, T/C [22]: 98.9%; viability, T/C [23]: 114%; viability, T/C [24]: 109%; viability, T/C [25]: 76.1%; viability, T/C [26]: 78%; viability, T/C [27]: 93.3%; viability, T/C [28]: 101%; viability, T/C [29]: 109%; viability, T/C [30]: 114%
2 | CC1COCCN1c1cc(-c2ccnn2C)c2ccnc(-c3ccn[nH]3)c2n1 (stereo not given) + NC1CC1c1ccc(-c2cccc(O)c2)cc1 | > 1000 | > 1000 | > 1000 | < 3.16 | < 3.16 | 36.7 | 39.4 | 56.4 | 102 | 38.9 | 36.6 | 43.7 | 87.3 | 37.4 | 40.1 | 39.1 | 81.8 | 39.5 | 42.7 | 44.2 | viability, T/C [31]: 60.7%; viability, T/C [32]: 63.2%; viability, T/C [33]: 62.7%; viability, T/C [34]: 75.6%; viability, T/C [35]: 64.1%; viability, T/C [36]: 59.6%; viability, T/C [37]: 60.5%; viability, T/C [38]: 50.9%; viability, T/C [22]: 82.1%; viability, T/C [39]: 53.4%; viability, T/C [40]: 42.1%; viability, T/C [25]: 32.7%; viability, T/C [26]: 36.2%; viability, T/C [27]: 32.9%; viability, T/C [28]: 76.5%
3 | COc1ccc([C@@H](O)c2cc(-c3ncnc4cc(N5CCOCC5)ccc34)c(F)cc2Cl)nn1 + NC1CC1c1ccc(-c2cccc(O)c2)cc1 | 5190 | 6670 | 5490 | 3620 | 1710 | 97.3 | 93.4 | 95.7 | 71.5 | 93.3 | 98.3 | 95.5 | 78.6 | 91.4 | 80.4 | 79.1 | 62 | 92.1 | 95.8 | 75.9 | viability, T/C [5]: 63%; viability, T/C [6]: 36.3%; viability, T/C [11]: 78.5%; viability, T/C [12]: 36.1%; viability, T/C [17]: 63.1%; viability, T/C [18]: 40.1%; viability, T/C [22]: 67.3%; viability, T/C [23]: 57.7%; viability, T/C [24]: 26.9%; viability, T/C [25]: 69.5%; viability, T/C [26]: 80.2%; viability, T/C [27]: 57.7%; viability, T/C [28]: 49.7%; viability, T/C [29]: 51.2%; viability, T/C [30]: 21.5%
4 | O=C(C=Cn1cnc(-c2cc(C(F)(F)F)cc(C(F)(F)F)c2)n1)NNc1cnccn1 + NC1CC1c1ccc(-c2cccc(O)c2)cc1 | 821 | 669 | 805 | 920 | 557 | 95.7 | 101 | 77.6 | 44.3 | 97.2 | 81.2 | 73.5 | 38.2 | 90.9 | 101 | 67.3 | 46 | 83.5 | 94.3 | 72.5 | viability, T/C [31]: 102%; viability, T/C [32]: 83.9%; viability, T/C [33]: 91.8%; viability, T/C [34]: 104%; viability, T/C [35]: 67.3%; viability, T/C [36]: 78.9%; viability, T/C [37]: 84.1%; viability, T/C [38]: 102%; viability, T/C [22]: 48.2%; viability, T/C [39]: 73.5%; viability, T/C [40]: 83.1%; viability, T/C [25]: 78.2%; viability, T/C [26]: 81.9%; viability, T/C [27]: 61.7%; viability, T/C [28]: 38%
5 | Nc1ncn(C2CC(O)C(CO)O2)c(=O)n1 (stereo not given) + NC1CCC(NC2CC2c2ccccc2)CC1 | > 1000 | > 1000 | > 1000 | > 1000 | > 1000 | 83.8 | 69 | 110 | 111 | 87.2 | 86.8 | 98.8 | 77.6 | 74.8 | 72.5 | 85.1 | 94.8 | 73.6 | 82.6 | 55.8 | viability, T/C [31]: 77.1%; viability, T/C [32]: 83.9%; viability, T/C [33]: 92.6%; viability, T/C [34]: 96.8%; viability, T/C [35]: 89.3%; viability, T/C [36]: 75.2%; viability, T/C [37]: 82.9%; viability, T/C [38]: 72.2%; viability, T/C [22]: 101%; viability, T/C [39]: 74.2%; viability, T/C [40]: 71.2%; viability, T/C [25]: 68.7%; viability, T/C [26]: 65.8%; viability, T/C [27]: 73.1%; viability, T/C [28]: 82.1%
